Values of other authors as cited in patent EP0475894A1, “Gemfibrozil formulations” (WARNER-LAMBERT COMPANY, priority 1990, dated 1992).

Conditions: particularly in a highly acidic medium

Cc1ccc(C)c(OCCCC(C)(C)C(=O)O)c1 [Gemfibrozil, 5-(2,5-dimethylphenoxy)-2,2-dimethylpentanoic acid]
solubility in water: very poor solubility in water
